Reference: patent US20220274938A1, “5-[(1S)-1-(4-BROMOPHENOXY)ETHYL]-2H-TETRAZOLE DERIVATIVES AND RELATED COMPOUNDS AS CLC-1 ION CHANNEL INHIBITORS FOR TREATING NEUROMUSCULAR DISORDERS” (NMD PHARMA A/S, priority 2019, published 2022)

Legend:
[1] = system: isolated rat soleus muscles; assay: Measurement of force in an in vitro model: isolated rat soleus nerve-muscle preparation with tubocurarine; format: cell-based; settings: 50 μM test compound, after 40 mins of compound exposure, 115 nM tubocurarine for 90 mins; for activation at 50 µM: Rattus norvegicus, 40 min, read-out: Point increase (%) of initial force that was restored
Experimental: FIG. 2. […] Force traces from a representative muscle stimulated to contract in 1) control condition before addition of neuromuscular blocking agent, 2) the force response to stimulation after 90 minutes incubation with Tubocurarine. […] The traces presented in panel A (1, 2, 3), correspond to the dotted lines in panel B, respectively.
Recovery of force is quantified as the percentage of the force prior to tubocurarine that is recovered by the compound.
The current disclosure relates to compounds that inhibit CIC-1 ion channels and increase muscle excitability and thereby improve muscle function in clinical conditions where muscle activation is failing. Such conditions result in loss of contractile function of skeletal muscle, weakness and excessive fatigue. In this series of experiments the compounds were tested for their ability to restore contractile function of isolated rat muscle when the neuromuscular transmission had been compromised akin to neuromuscular disorders.
Experimentally, soleus muscles from 4-5 week old rats were isolated with the motor nerve remaining attached. The nerve-muscle preparations were mounted in experimental setups that enabled electrical stimulation of the motor nerve. Stimulation of the motor nerve led to activation of the muscle fibres and ensuing force production that was recorded. The nerve-muscle preparations were also in these experiments incubated in the standard Krebs Ringer (see example 5) and the solution was heated to 30° C. and continuously equilibrated with a mixture of 95% O2 and 5% CO2, pH˜7.4.
After mounting the nerve-muscle preparation in the experimental setup, the contractile function of the muscle was initially assessed under the control conditions (FIG. 2A). […] The experimental condition mimics the failing neuromuscular transmission in a range of neuromuscular disorders. After addition of tubocurarine the contractile force declined over the next 90 mins to 10-50% of the control force. 50 μM of the test compound was then added and the contractile force recovered despite the continued presence of tubocurarine. To quantify the ability of the compound to restore force the percentage of the initial force that was restored was determined after 40 mins of compound exposure (FIG. 2B) and the point increase is reported in Table 3.

CIC-1 ion channel = molecular target: T1, CIC-1 ion channel (Rattus norvegicus, UniProt P35524); assay: Electrophysiological measurement (Gm, three micro-electrodes) of compound inhibition of CIC-1 in rat soleus muscle fibres; format: cell-based; settings: approx. 30° C., four increasing compound concentrations, read-out: EC50 (inhibition of CIC-1 ion channel, reduction of Gm)
T1 construct: CIC-1 channels in native tissue of rat skeletal muscle fibres; from tissue; host or cells: whole soleus muscle of 12-14 week old Wistar rats
T1 sequence (P35524 1-994): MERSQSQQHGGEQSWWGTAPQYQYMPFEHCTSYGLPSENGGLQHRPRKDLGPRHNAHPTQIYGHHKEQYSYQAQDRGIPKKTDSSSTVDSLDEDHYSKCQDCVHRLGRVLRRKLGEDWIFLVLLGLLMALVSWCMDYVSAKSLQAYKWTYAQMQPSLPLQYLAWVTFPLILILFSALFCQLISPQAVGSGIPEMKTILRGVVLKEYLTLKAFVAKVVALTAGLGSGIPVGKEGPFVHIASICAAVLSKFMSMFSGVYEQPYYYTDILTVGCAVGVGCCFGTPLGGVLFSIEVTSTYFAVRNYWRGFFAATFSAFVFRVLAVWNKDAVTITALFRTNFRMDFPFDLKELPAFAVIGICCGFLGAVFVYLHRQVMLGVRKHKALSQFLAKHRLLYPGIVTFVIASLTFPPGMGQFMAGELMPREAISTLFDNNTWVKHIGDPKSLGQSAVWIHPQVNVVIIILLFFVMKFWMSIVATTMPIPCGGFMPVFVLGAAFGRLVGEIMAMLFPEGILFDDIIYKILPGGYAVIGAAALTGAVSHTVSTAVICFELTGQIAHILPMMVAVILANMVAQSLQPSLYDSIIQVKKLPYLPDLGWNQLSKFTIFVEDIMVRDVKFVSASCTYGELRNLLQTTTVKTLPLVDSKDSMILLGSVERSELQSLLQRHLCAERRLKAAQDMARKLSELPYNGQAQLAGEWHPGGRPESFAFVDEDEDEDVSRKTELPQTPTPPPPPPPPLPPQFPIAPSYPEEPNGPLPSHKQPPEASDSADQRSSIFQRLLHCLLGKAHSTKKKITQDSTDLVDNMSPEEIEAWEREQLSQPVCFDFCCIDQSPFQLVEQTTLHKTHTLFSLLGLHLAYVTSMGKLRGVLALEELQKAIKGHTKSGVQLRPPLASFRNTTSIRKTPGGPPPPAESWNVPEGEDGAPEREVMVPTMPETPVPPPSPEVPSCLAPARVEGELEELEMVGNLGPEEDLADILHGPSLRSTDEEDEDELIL
From the text: FIG. 1. […] Please note that the drawing illustrates only the impaled fibre although it is part of an intact muscle that contains many such fibres. All electrodes recorded the membrane potential of the fibre and the two peripheral electrodes were used to inject current (−30 nA, 50 ms). The electrodes were inserted with known inter-electrode distances (X1, X2 and X3). After insertion, current was passed first via the V1 electrode and then via the V3 electrode. The resulting deflections in the membrane voltage were measured by the other electrodes. The steady state deflections in membrane potential were measured and divided by the magnitude of the injected current (−30 nA) to obtain transfer resistances. These were next plotted against inter-electrode distances, and fitted to an exponential function (Panel B), from which Gm could be calculated using linear cable theory. The approach described in panel A and B, was repeated for several muscle fibres in the muscle during exposure at increasing concentrations of compound E-8, with approx. 10 fibres at each concentration. Average Gm at each concentration was plotted as a function of compound concentration in panel C, and fitted to a 4-parameter sigmoidal function from which the EC50 value for the compound was obtained (dashed line)
Apparent CIC-1 affinity was reported by the concentration of compound at which 50% of the compound's full inhibition of CIC-1 was observed (EC50).
CIC-1 Cl^− ion channels generate around 80% of the total membrane conductance (Gm) in resting skeletal muscle fibres of most animals including rat and human (Bretag, A H. Muscle chloride channels. Physiological Reviews, 1987, 67, 618-724). […] CIC-1 inhibition would in such recordings be reflected by a reduction of Gm.
Experimentally, Gm was measured in individual fibres of whole rat soleus muscles using a three micro-electrodes technique described in this example and in full detail elsewhere (Riisager et al., Determination of cable parameters in skeletal muscle fibres during repetitive firing of action potentials. Journal of Physiology, 2014, 592, 4417-4429). Briefly, intact rat soleus muscles were dissected out from 12-14 week old Wistar rats and placed in an experimental chamber that was perfused with a standard Krebs Ringer solution containing 122 mM NaCl, 25 mM NaHCO3, 2.8 mM KCl, 1.2 mM KH2PO4, 1.2 mM MgSO4, 1.3 mM CaCl2, 5.0 mM D-glucose. During experiments, the solution was kept at approx. 30° C. and continuously equilibrated with a mixture of 95% O2 and 5% CO2, pH˜7.4. The experimental chamber was placed in Nikon upright microscope that was used to visualize individual muscle fibres and the three electrodes (glass pipettes filled with 2 M potassium citrate). For Gm measurements, the electrodes were inserted into the same fibre with known inter-electrode distances of 0.35-0.5 mm (V1-V2, X1) and 1.1-1.5 mm (V1-V3, X3) (FIG. 1A). The membrane potential of the impaled muscle fibre was recorded by all electrodes. Two of the electrodes were furthermore used to inject 50 ms current pulses of −30 nA. […] The steady state voltage deflection at each distance was divided by the magnitude of current injected (−30 nA) and the resulting transfer resistances were plotted against inter-electrode distance and the data was fitted to a mono-exponential function from which Gm could be calculated using linear cable theory (FIG. 1B).
To establish a dose response relationship, Gm was first determined in 10 muscle fibres in the absence of compound and then at four increasing compound concentrations with Gm determinations in 5-10 fibres at each concentration. The average Gm values at each concentration were plotted against compound concentration and the data was fitted to sigmoidal function to obtain an EC50 value (FIG. 1C).

| EC50 (CIC-1 ion channel) [µM] | Compound | activation at 50 µM [1] [%] | further results |
| --- | --- | --- | --- |
| – | CC(=O)N1CCC(ON(C(C)=O)C(=O)[C@H](C)Oc2ccc(Br)cc2)C1 (stereo partly drawn) [Compound C-12, (2S)-N-acetyl-N-[(1-acetylpyrrolidin-3-yl)oxy]-2-(4-bromophenoxy)propanamide] | 18 | – |
| 4.6 | C[C@H](Oc1ccc(Cl)cc1)C(=O)NOC1CCCC1 [Compound C-70, (2S)-2-(4-chlorophenoxy)-N-(cyclopentyloxy)propanamide] | – | – |
| – | C[C@H](Oc1ccc(Br)cc1F)C(=O)NOC1CCC1 [Compound C-31, (2S)-2-(4-bromo-2-fluorophenoxy)-N-cyclobutoxypropanamide] | 56 | – |
| 2.2 | C/C(=N\O)NC(=O)[C@@H](Oc1ccc(Br)cc1F)C(C)C [Compound A-4, (2S)-2-(4-bromo-2-fluorophenoxy)-N-[1(hydroxyimino)ethyl]-3-methylbutanamide] | – | – |
| 2 | CC(=NO)NC(=O)[C@H](C)Oc1ccc(Br)cc1 [Compound A-6, (2S)-2-(4-bromophenoxy)-N-[1-(hydroxyimino)ethyl]propanamide] | – | – |
| – | C[C@H](Oc1ccc(Br)cc1C(C)(F)F)C(=O)NC#N [Compound B-6] | – | Point increase (%) of initial force that was restored [1]: 15% |
| 11.5 | CC(C)ONC(=O)[C@H](C)Oc1ccc(Cl)cc1 [Compound C-84, (2S)-2-(4-chlorophenoxy)-N-(propan-2-yloxy)propanamide] | – | – |
| – | CONC(=O)[C@H](C)Oc1ccc(Cl)cc1F [Compound C-40, (2S)-2-(4-chloro-2-fluorophenoxy)-N-methoxypropanamide] | 24 | – |
| – | C=Cc1cc(Cl)ccc1O[C@@H](C)c1nnn[nH]1 [Compound E-12, 5-[(1S)-1-(4-chloro-2-ethenylphenoxy)ethyl]-1H-1,2,3,4-tetrazole] | 21 | – |
| – | C[C@H](Oc1ccc(Cl)cc1)C(=O)NOC1CCCCO1 (stereo partly drawn) [Compound C-65, (2S)-2-(4-chlorophenoxy)-N-(oxan-2-yloxy)propanamide] | 26 | – |
| – | CC(=NO)NC(=O)[C@H](C)Oc1ccc(Br)cc1F [Compound A-5, (2S)-2-(4-bromo-2-fluorophenoxy)-N-[1-(hydroxyimino)ethyl]ropanamide] | – | Point increase (%) of initial force that was restored [1]: 30% |
| 9.7 | CCONC(=O)[C@H](C)Oc1ccc(Cl)cc1 [Compound C-82, (2S)-2-(4-chlorophenoxy)-N-ethoxypropanamide] | – | – |
| – | C[C@H](Oc1ccc(Cl)cc1)C(=O)NOC(C)(C)C [Compound C-43, (2S)-N-(tert-butoxy)-2-(4-chlorophenoxy)propanamide] | 20 | – |
| – | C[C@H](Oc1ccc(Br)cc1)c1nn[nH]n1 [Compound E-6, 5-[(1S)-1-(4-bromophenoxy)ethyl]-2H-1,2,3,4-tetrazole] | 21 | – |
| 6 | C[C@H](Oc1ccc(Br)cc1-c1ccon1)c1nnn[nH]1 [Compound E-7] | – | – |
| – | FCC[C@H](Oc1ccc(Br)cc1-c1ccon1)c1nn[nH]n1 [Compound E-1] | 21 | – |
| – | CCC(F)(F)c1cc(Br)c(F)cc1O[C@@H](C)C(=O)NC#N [Compound B-7, (2S)-2-[4-bromo-2-(1,1-difluoropropy1)-5-fluorophenoxy]-N-cyanopropanamide] | – | Point increase (%) of initial force that was restored [1]: 37% |
| 3.5 | CCCONC(=O)[C@H](C)Oc1ccc(Cl)cc1 [Compound C-83, (2S)-2-(4-chlorophenoxy)-N-propoxypropanamide] | – | – |
| – | C[C@H](Oc1ccc(Cl)cc1)C(=O)NOCc1ccon1 [Compound C-39, (2S)-2-(4-chlorophenoxy)-N-[(1,2-oxazol-3-yl)methoxy]propanamide] | 49 | – |
| – | CC(=O)N1CC(ON(C(C)=O)C(=O)[C@H](C)Oc2ccc(Cl)cc2)C1 [Compound C-3, (2S)-N-acetyl-N-[(1-acetylazetidin-3-yl)oxy]-2-(4-chlorophenoxy)propanamide] | 29 | – |
| – | CC(=O)N1CCC(ON(C(C)=O)C(=O)[C@H](C)Oc2ccc(Cl)cc2)C1 (stereo partly drawn) [Compound C-16, (2S)-N-acetyl-N-[(1-acetylpyrrolidin-3-yl)oxy]-2-(4-chlorophenoxy)propanamide] | 23 | – |
| – | C[C@H](Oc1ccc(Cl)cc1)C(=O)NOC1CC(F)(F)C1 [Compound C-67, (2S)-2-(4-chlorophenoxy)-N-(3,3-difluorocyclobutoxy)propanamide] | 23 | – |
| – | C[C@H](Oc1ccc(Cl)cc1)C(=O)NOCCC1CCCC1 [Compound C-71, (2S)-2-(4-chlorophenoxy)-N-(2-cyclopentylethoxy)propanamide] | 25 | – |
| 19.9 | C[C@H](Oc1ccc(Cl)cc1)c1nnn[nH]1 [Compound E-15, 5-[(1S)-1-(4-chlorophenoxy)ethyl]-1H-1,2,3,4-tetrazole] | – | – |
| – | C[C@H](Oc1ccc(Cl)cc1)C(=O)NOCc1nccs1 [Compound C-66, (2S)-2-(4-chlorophenoxy)-N-[(1,3-thiazol-2-yl)methoxy]propanamide] | 21 | – |
